This is an account of results in paper PMC4041848, “Differential Effects of Omeprazole and Lansoprazole Enantiomers on Aryl Hydrocarbon Receptor in Human Hepatocytes and Cell Lines” (PLoS ONE, 2014).

SMILES strings stand for the structures. Read-outs that look alike come from different tables or passages of the source. A value given as a limit tells only on which side of the number the result lay.

The subject of data set [1] is CYP1A1 catalytic activity (EROD). Put plainly: EROD catalytic activity in HepG2 cells. Particulars: HepG2, 24 h, 5 nM.
The subject of data set [2] is CYP1A1 protein. Put plainly: CYP1A1 protein induction in primary human hepatocytes (western blot). The settings on record: hepatocyte culture HH52, 48 h. From the text:
Primary human hepatocytes used in this study were obtained from two sources: (i) from multiorgan donor HH52; the use of liver cells of donor HH52 was approved by “Ethical committee at the Faculty Hospital Olomouc”,and it was in accordance with Transplantation law #285/2002 Sb; “Ethical committee at the Faculty Hospital Olomouc” waived the authors from obtaining consent from the next of kin, regarding human hepatocytes obtained from liver donor HH52. (ii) long-term human hepatocytes in monolayer Batch HEP220770 (person), Batch HEP220774 (person) were purchased from Biopredic International (Biopredic International, Rennes, France). Cells were cultured in serum-free medium. […]
Total protein extracts were prepared from cells cultured on 6-well plates. […] Supernatant was collected and the protein content was determined by the Bradford reagent. […] The density of bands was measured by densitometry. […]
Figure 3 Effects of omeprazole and lansoprazole enantiomers on CYP1A1 mRNA, protein and EROD activity in primary human hepatocytes. […] RT-PCR data are the mean ± SD from triplicate measurements and are expressed as fold induction over vehicle-treated cells. […] Density of bands in western blots was quantified by densitometry and the values are indicated along with respective blots. […] The data are expressed as fold induction over the value from control cells. […]

Data set [3] has as its system aryl hydrocarbon receptor AhR. As to the kind of experiment: AhR gene reporter assay, agonist mode. The settings on record: for AhR agonist efficacy: AZ-AHR cells, 24 h, compared to 5 nM TCDD, calculated at 100 µM compound (stated for omeprazole). As for the experimental part:
(§1) A stably transfected gene reporter cell line AZ-AHR, derived from human hepatoma HepG2 cells transfected with a construct containing several AhR binding sites upstream of a luciferase reporter gene, was used for assessment of AhR transcriptional activity. Cells were incubated for 24 h with tested compounds and/or vehicle (DMSO; 0.1% v/v), in the presence or absence of TCDD (10 nM; AZ-AHR cells) or DEX (100 nM; AZ-GR cells). After the treatments, cells were lysed and luciferase activity was measured. In parallel, cell viability was determined by conventional MTT test.
(§2) Figure 1 Effect of omeprazole and lansoprazole enantiomers on transcriptional activity of aryl hydrocarbon receptor AhR in human gene reporter cell line AZ-AHR. The cells were seeded in 96-well plates and stabilized for 16 h. Panels A and B: Cells were incubated for 24 h with S-OME, R-OME, rac-OME, S-LAN, R-LAN and rac-LAN at concentrations ranging from 10^−10 M to 10^−4 M. The vehicle was DMSO (0.1% v/v). After the treatment, MTT test was performed and absorbance was measured at 540 nm. Treatments were performed in triplicates. The data are the mean from experiments from six different passages of cells and are expressed as a percentage of viability of control cells. The values of IC50 were calculated and are indicated in a figure. Panels C - F: AZ-AHR cells were incubated for 24 h with S-OME, R-OME, rac-OME, S-LAN, R-LAN and rac-LAN at concentrations ranging from 10^−10 M to 10^−4 M in the absence (Panels C and D - agonist mode) or in the presence (Panels E and F- antagonist mode) of TCDD (5 nM). The vehicle was DMSO (0.1% v/v). After the treatments, cells were lysed and luciferase activity was measured. Treatments were performed in triplicates in five (agonist mode) or four (antagonist mode) independent cell passages. […] Data are expressed as a fold induction of luciferase activity over control cells (Panels C and D - agonist mode) or as a percentage of maximal induction attained by TCDD (Panels E and F- antagonist mode).
Gene reporter assays were performed in two different experimental layouts. […] In antagonist mode, cells were incubated with increasing concentrations of tested compounds in combination with model agonist (TCDD; 5 nM), and half-maximal inhibitory concentrations (IC50) were calculated. […] The efficacy was calculated at concentration of compounds of 100 µM and compared to 5 nM TCDD (Figure 1C).

In data set [4] the test system is CYP1A1 mRNA. Particulars: HepG2, 24 h, 5 nM, vs vehicle-treated cells. As to the method: (§3) Total RNA was isolated using TRI Reagent (Molecular Research Center, Cincinnati, OH, USA). cDNA was synthesized from 1000 ng of total RNA using M-MLV Reverse Transcriptase (Finnzymes, Espoo, Finland) at 42°C for 60 min in the presence of random hexamers (Takara, Shiga, Japan). qRT-PCR was carried out using LightCycler FastStart DNA MasterPLUS SYBR Green I (Roche Diagnostic Corporation, Prague, Czech Republic) on a Light Cycler 480 II apparatus (Roche Diagnostic Corporation). CYP1A1, CYP1A2 and GAPDH mRNAs were determined as described previously. Measurements were performed in triplicates. Gene expression was normalized to GAPDH as a housekeeping gene.
Treatments were performed in triplicates.

In data set [5] the test system is CYP1A1/1A2 enzymes (EROD). As to the kind of experiment: EROD activity in primary human hepatocytes. The settings on record: hepatocyte culture Hep220774, 24 h, 5 nM. As for the experimental part:
(§4) Figure 3 Effects of omeprazole and lansoprazole enantiomers on CYP1A1 mRNA, protein and EROD activity in primary human hepatocytes. Panel A and Panel B: RT-PCR analyses of CYP1A1 and CYP1A2 mRNA and western blots of CYP1A1 and CYP1A2 from two different cultures (HH52 and Hep220770) are shown. Human hepatocytes were incubated for 24 h (mRNA analysis) or 48 (protein analysis) with S-OME, R-OME, rac-OME, S-LAN, R-LAN, rac-LAN, TCDD and vehicle (DMSO; 0.1% v/v). RT-PCR data are the mean ± SD from triplicate measurements and are expressed as fold induction over vehicle-treated cells. Data were normalized to GAPDH mRNA levels. Density of bands in western blots was quantified by densitometry and the values are indicated along with respective blots. Panel C: EROD and cytotoxicity: Human hepatocytes (culture Hep220774) were treated for 24 h with S-OME, R-OME, rac-OME, S-LAN, R-LAN, rac-LAN, TCDD and vehicle (DMSO; 0.1% v/v). Upper bar graph: An activity of 7-ethoxyresorufin- O-deethylase (EROD) was measured by fluorescent spectrophotometry with 530 nm excitation and 590 nm emission filters. Treatments were performed in triplicates. The data are expressed as fold induction over the value from control cells. Lower bar graph: A conventional MTT test was performed and absorbance was measured at 540 nm. […] The data are expressed as percentage of viability of control cells. […]

Data set [6] deals with primary human hepatocytes. Put plainly: MTT cytotoxicity test in primary human hepatocytes. Particulars: 100 µM. As to the method: as §4
Data set [7] concerns CYP1A2 protein. Put plainly: CYP1A2 protein induction in primary human hepatocytes (western blot). The settings on record: hepatocyte culture HH52, 48 h, 10 µM. From the text: (§5) Primary human hepatocytes used in this study were obtained from two sources: (i) from multiorgan donor HH52; the use of liver cells of donor HH52 was approved by “Ethical committee at the Faculty Hospital Olomouc”,and it was in accordance with Transplantation law #285/2002 Sb; “Ethical committee at the Faculty Hospital Olomouc” waived the authors from obtaining consent from the next of kin, regarding human hepatocytes obtained from liver donor HH52. (ii) long-term human hepatocytes in monolayer Batch HEP220770 (person), Batch HEP220774 (person) were purchased from Biopredic International (Biopredic International, Rennes, France). Cells were cultured in serum-free medium. Cultures were maintained at 37°C and 5% CO2 in a humidified incubator.
Total protein extracts were prepared from cells cultured on 6-well plates. Cells were washed twice with ice-cold PBS and scraped into 1 ml of PBS. The suspension was centrifuged (4500 RPM/5 min/4°C) and the pellet was resuspended in 150 µl of ice-cold lysis buffer (150 mM NaCl; 10 mM Tris pH 7.2; 0.1% (w/v) SDS; anti-protease cocktail, 1% (v/v) Triton X-100; anti-phosphatase cocktail, 1% (v/v) sodium deoxycholate; 5 mM EDTA). […] Supernatant was collected and the protein content was determined by the Bradford reagent. […] The density of bands was measured by densitometry. […]
Figure 3 Effects of omeprazole and lansoprazole enantiomers on CYP1A1 mRNA, protein and EROD activity in primary human hepatocytes. […] RT-PCR data are the mean ± SD from triplicate measurements and are expressed as fold induction over vehicle-treated cells. […] Density of bands in western blots was quantified by densitometry and the values are indicated along with respective blots. […] Upper bar graph: An activity of 7-ethoxyresorufin- O-deethylase (EROD) was measured by fluorescent spectrophotometry with 530 nm excitation and 590 nm emission filters. […] The data are expressed as fold induction over the value from control cells. Lower bar graph: A conventional MTT test was performed and absorbance was measured at 540 nm. […] The data are expressed as percentage of viability of control cells.

Data set [8] has as its system AZ-AHR cells. As to the kind of experiment: MTT cytotoxicity test in AZ-AHR reporter cells. As to the method: as §1
(§6) In the first series of experiments, the cytotoxicity of tested compounds was assessed in gene reporter cell line AZ-AHR. For this purpose, the cells were incubated for 24 h with S-OME, R-OME, rac-OME, S-LAN, R-LAN and rac-LAN at concentration ranging from 100 pM to 250 µM. The vehicle was DMSO (0.1% v/v). After the treatment, a conventional MTT test was performed.
as §2

Data set [9] relates to CYP1A1 mRNA. Put plainly: CYP1A1 mRNA induction in primary human hepatocytes (qRT-PCR). Particulars: hepatocyte culture Hep220770, 24 h, 100 µM.
Source text: as §5, §3
We examined a capability of omeprazole and lansoprazole to induce CYP1A1 and CYP1A2 mRNA and protein in primary human hepatocytes, which is a more physiological and metabolically competent cell model. Human hepatocytes were treated for 24 h or 48 h with TCDD (5 nM), vehicle (DMSO; 0.1% V/V) and tested compounds.
Figure 3 Effects of omeprazole and lansoprazole enantiomers on CYP1A1 mRNA, protein and EROD activity in primary human hepatocytes. Panel A and Panel B: RT-PCR analyses of CYP1A1 and CYP1A2 mRNA and western blots of CYP1A1 and CYP1A2 from two different cultures (HH52 and Hep220770) are shown. Human hepatocytes were incubated for 24 h (mRNA analysis) or 48 (protein analysis) with S-OME, R-OME, rac-OME, S-LAN, R-LAN, rac-LAN, TCDD and vehicle (DMSO; 0.1% v/v). RT-PCR data are the mean ± SD from triplicate measurements and are expressed as fold induction over vehicle-treated cells. Data were normalized to GAPDH mRNA levels. Density of bands in western blots was quantified by densitometry and the values are indicated along with respective blots. Panel C: EROD and cytotoxicity: Human hepatocytes (culture Hep220774) were treated for 24 h with S-OME, R-OME, rac-OME, S-LAN, R-LAN, rac-LAN, TCDD and vehicle (DMSO; 0.1% v/v). Upper bar graph: An activity of 7-ethoxyresorufin- O-deethylase (EROD) was measured by fluorescent spectrophotometry with 530 nm excitation and 590 nm emission filters. Treatments were performed in triplicates. The data are expressed as fold induction over the value from control cells. Lower bar graph: A conventional MTT test was performed and absorbance was measured at 540 nm. Treatments were performed in triplicates. The data are expressed as percentage of viability of control cells.

Data set [10] is described as follows: MTT cytotoxicity test in AZ-AHR reporter cells. Particulars: human. As for the experimental part:
as §1, §6, §2

As for `Clc1cc2c(cc1Cl)Oc1cc(Cl)c(Cl)cc1O2` [TCDD, 2,3,7,8-tetrachlorodibenzo-p-dioxin], the “EROD activity, average increase” value in data set [1] is recorded as 22-23 fold. Besides, the “CYP1A1 protein induction” value in data set [2] is given as “drastic increase”. Also, in data set [3] (5 nM TCDD, five consecutive passages, vs vehicle-treated cells), the “induction of AhR-dependent luciferase activity, average” value is 354 fold. For the same compound, the “CYP1A1 mRNA induction” value in [4] is listed as “approximately 230 fold”. Also, the “induction of EROD activity” value in [5] is reported as “approximately 15 fold”.
Turning to `Cc1c(OCC(F)(F)F)ccnc1C[S@+]([O-])c1nc2ccccc2[nH]1` [S-LAN, S-lansoprazole], in data set [3], the EC50 amounted to 1900 ± 300 nM and the AhR agonist efficacy is given as 26.3±8.7%. The “viability of the cells” value in [6] was determined as 64%. Also, the “CYP1A2 protein induction” value in data set [7] is “strong induction”. For the same compound, the IC50 in [8] amounted to 169000 nM.
On to `Cc1c(OCC(F)(F)F)ccnc1C[S+]([O-])c1nc2ccccc2[nH]1` (racemic) [rac-LAN, rac-lansoprazole], for which the “CYP1A1 mRNA induction” value in data set [9] is 358 fold. In addition, in data set [3], the AhR agonist efficacy is 22.8±5.6%. The EC50 at 24 h in [3] (human) was found to be 2400 ± 100 nM. The IC50 at 24 h in data set [10] is over 250000 nM.
